Where a SMILES comes first, the peptide text is derived from it. Bridges are numbered along the chain shown (N, C = ends). Where no end group is shown, it is not given here. The star is where a group is joined. FITC = O=C1OC2(c3ccc(O)cc3Oc3cc(O)ccc32)c2ccc(NC(=S)*)cc21; GABA = NCCCC(=O)O
Key:
[1] = Weight of non-inoculated mice under daily treatment; assay type: in vivo, mouse; settings: 16-week old C57BL/6, 0.3 mg/kg i.p. daily for 28 days; data not shown
[2] = tested on: B16F10 mouse melanoma cells; assay: Immunofluorescence microscopy of cell binding and uptake; assay type: cell-based; settings: 10 μM ALOS4-FITC, 37°C, confocal microscopy
Procedure: Poly-L-lysine (1 h, 37°C; cat# P8920, Sigma-Aldrich) coated slides (cat# PEZGS0816, Merck) were washed 2x with PBS (pH 7.4), 1.5×10^4 B16F10 cells per well were seeded in RPMI (10% FCS) and allowed to incubate overnight (37°C, 5% CO2). ALOS4-FITC (10 μM) was added to slide wells up to 60 min (37°C, 5% CO2), then cells were fixed in paraformaldehyde (4%, 10 min). Following PBS washes (2x) and removal of excess buffer, cells were stained with a mounting medium containing DAPI (cat# H-1500, Vector Laboratories, Burlingame, CA). Slides were imaged by confocal microscopy.

integrin αvβ3 [3] = biological target: T1, integrin αvβ3 (Homo sapiens, UniProt P06756); assay: fluorescence plate saturation binding assay
T1 chain 1: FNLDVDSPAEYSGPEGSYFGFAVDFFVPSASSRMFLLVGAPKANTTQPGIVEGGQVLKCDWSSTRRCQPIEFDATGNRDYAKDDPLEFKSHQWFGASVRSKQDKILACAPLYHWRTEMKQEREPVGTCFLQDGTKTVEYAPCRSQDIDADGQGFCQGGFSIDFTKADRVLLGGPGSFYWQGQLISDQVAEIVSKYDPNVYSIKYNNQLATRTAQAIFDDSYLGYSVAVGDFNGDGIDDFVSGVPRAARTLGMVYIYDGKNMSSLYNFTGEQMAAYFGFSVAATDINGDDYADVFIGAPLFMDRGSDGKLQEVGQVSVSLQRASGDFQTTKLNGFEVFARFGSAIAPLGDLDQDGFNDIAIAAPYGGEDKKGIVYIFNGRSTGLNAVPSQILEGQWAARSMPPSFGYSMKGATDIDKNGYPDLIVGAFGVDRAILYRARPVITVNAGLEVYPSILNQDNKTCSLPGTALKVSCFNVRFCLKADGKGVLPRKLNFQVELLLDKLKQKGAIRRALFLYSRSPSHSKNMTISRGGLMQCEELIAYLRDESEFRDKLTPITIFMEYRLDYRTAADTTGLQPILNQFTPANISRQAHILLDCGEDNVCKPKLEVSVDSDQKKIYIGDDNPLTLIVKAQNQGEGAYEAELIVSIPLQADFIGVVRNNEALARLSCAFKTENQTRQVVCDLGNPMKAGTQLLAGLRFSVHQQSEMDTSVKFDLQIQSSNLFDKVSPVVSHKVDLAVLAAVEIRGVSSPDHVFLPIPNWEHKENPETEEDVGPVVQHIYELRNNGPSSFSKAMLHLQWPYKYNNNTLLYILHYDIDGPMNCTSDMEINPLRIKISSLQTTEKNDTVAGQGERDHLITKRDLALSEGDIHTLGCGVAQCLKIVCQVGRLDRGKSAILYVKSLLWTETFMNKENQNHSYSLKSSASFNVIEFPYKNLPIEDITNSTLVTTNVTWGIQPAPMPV
T1 chain 2: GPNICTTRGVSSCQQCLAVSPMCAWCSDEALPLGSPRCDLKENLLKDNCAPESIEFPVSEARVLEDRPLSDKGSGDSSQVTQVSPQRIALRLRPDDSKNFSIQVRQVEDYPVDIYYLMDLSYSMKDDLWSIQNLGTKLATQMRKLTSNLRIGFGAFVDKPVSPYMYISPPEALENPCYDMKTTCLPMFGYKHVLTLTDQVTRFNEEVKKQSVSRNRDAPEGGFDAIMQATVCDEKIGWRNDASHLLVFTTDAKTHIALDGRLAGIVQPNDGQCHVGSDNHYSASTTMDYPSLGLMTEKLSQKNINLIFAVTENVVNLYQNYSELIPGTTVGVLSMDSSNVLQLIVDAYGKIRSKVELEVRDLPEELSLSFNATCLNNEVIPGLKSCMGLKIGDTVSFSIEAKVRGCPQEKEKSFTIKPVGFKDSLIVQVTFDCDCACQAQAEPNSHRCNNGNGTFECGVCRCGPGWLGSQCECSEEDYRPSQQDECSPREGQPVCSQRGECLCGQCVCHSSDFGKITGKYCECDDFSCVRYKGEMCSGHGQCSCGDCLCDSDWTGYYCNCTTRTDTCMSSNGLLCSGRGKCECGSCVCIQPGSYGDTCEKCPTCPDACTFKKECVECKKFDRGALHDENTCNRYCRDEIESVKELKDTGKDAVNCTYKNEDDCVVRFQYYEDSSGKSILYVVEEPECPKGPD

integrin αvβ3 [4] = biological target: T1, integrin αvβ3; assay: fluorescence competition binding assay with ALOS4-FITC

Q: Which “effect on animal weight, non-inoculated mice” value [1] does the source give for `CC(C)C[C@@H]1NC(=O)[C@H](CO)NC(=O)CNC(=O)[C@H](C)NC(=O)[C@H](CO)NC(=O)[C@H](CO)NC(=O)[C@@H](N)CSSC[C@@H](C(=O)O)NC(=O)[C@H](Cc2ccccc2)NC1=O` [ALOS4] (H-CSSAGSLFC-OH; disulfide 1-9) here?
A: The value was “did not have any effect on animal weight”.

Q: Which “association with cells, 10 min” value ([2]; 10 min) does the source give for `CC(C)C[C@@H]1NC(=O)[C@H](CO)NC(=O)CNC(=O)[C@H](C)NC(=O)[C@H](CO)NC(=O)[C@H](CO)NC(=O)[C@@H](NC(=O)CCCNC(=S)Nc2ccc3c(c2)C(=O)OC32c3ccc(O)cc3Oc3cc(O)ccc32)CSSC[C@@H](C(=O)O)NC(=O)[C@H](Cc2ccccc2)NC1=O` [ALOS4-FITC] ({FITC-GABA}-CSSAGSLFC-OH; disulfide 1-9) here?
A: Its value is “rapidly adheres to the cell surface”.

Q: What about the “translocation into cells, 30 min” value ([2]; 30 min) of the same molecule?
A: The value was “appears to translocate quickly to the cell cytoplasm”.

Q: What about the “intracellular localization, 60 min” value ([2]; up to 60 min) of the same molecule?
A: The value was “a majority of ALOS4-FITC migrated to the nuclear envelope and/or surrounding endoplasmic reticular membranes”.

Q: Which Kd (integrin αvβ3 [3]) does the source give for {FITC-ε‑Acp}-CSSAGSLFC (disulfide 1-9 (inferred)) [ALOS4-FITC] here?
A: The Kd was 192 nM.

Q: Which Kd (integrin αvβ3 [4]) does the source give for CSSAGSLFC (disulfide 1-9 (inferred)) [ALOS4] here?
A: Its Kd is 2550 nM.

Source: article PMC5325384, “Novel synthetic cyclic integrin αvβ3 binding peptide ALOS4: antitumor activity in mouse melanoma models” (Oncotarget, 2016)
